Test results reported in patent EP1018003B1, “MODULATORS OF DNA CYTOSINE-5 METHYLTRANSFERASE AND METHODS FOR USE THEREOF” (The Regents of the University of California, priority 1997, dated 1999).

B1: DCMTase (Mus musculus) (protein)
chain: MPARTAPARVPALASPAGSLPDHVRRRLKDLERDGLTEKECVREKLNLLHEFLQTEIKSQLCDLETKLHKEELSEEGYLAKVKSLLNKDLSLENGTHTLTQKANGCPANGSRPTWRAEMADSNRSPRSRPKPRGPRRSKSDSDTLSVETSPSSVATRRTTRQTTITAHFTKGPTKRKPKEESEEGNSAESAAEERDQDKKRRVVDTESGAAAAVEKLEEVTAGTQLGPEEPCEQEDDNRSLRRHTRELSLRRKSKEDPDREARPETHLDEDEDGKKDKRSSRPRSQPRDPAAKRRPKEAEPEQVAPETPEDRDEDEREEKRRKTTRKKLESHTVPVQSRSERKAAQSKSVIPKINSPKCPECGQHLDDPNLKYQQHPEDAVDEPQMLTSEKLSIYDSTSTWFDTYEDSPMHRFTSFSVYCSRGHLCPVDTGLIEKNVELYFSGCAKAIHDENPSMEGGINGKNLGPINQWWLSGFDGGEKVLIGFSTAFAEYILMEPSKEYEPIFGLMQEKIYISKIVVEFLQNNPDAVYEDLINKIETTVPPSTINVNRFTEDSLLRHAQFVVSQVESYDEAKDDDETPIFLSPCMRALIHLAGVSLGQRRATRRVMGATKEKDKAPTKATTTKLVYQIFDTFFSEQIEKYDKEDKENAMKRRRCGVCEVCQQPECGKCKACKDMVKFGGTGRSKQACLKRRCPNLAVKEADDDEEADDDVSEMPSPKKLHQGKKKKQNKDRISWLGQPMKIEENRTYYQKVSIDEEMLEVGDCVSVIPDDSSKPLYLARVTALWEDKNGQMMFHAHWFCAGTDTVLGATSDPLELFLVGECENMQLSYIHSKVKVIYKAPSENWAMEGGTDPETTLPGAEDGKTYFFQLWYNQEYARFESPPKTQPTEDNKHKFCLSCIRLAELRQKEMPKVLEQIEEVDGRVYCSSITKNGVVYRLGDSVYLPPEAFTFNIKVASPVKRPKKDPVNETLYPEHYRKYSDYIKGSNLDAPEPYRIGRIKEIHCGKKKGKVNEADIKLRLYKFYRPENTHRSYNGSYHTDINMLYWSDEEAVVNFSDVQGRCTVEYGEDLLESIQDYSQGGPDRFYFLEAYNSKTKNFEDPPNHARSPGNKGKGKGKGKGKGKHQVSEPKEPEAAIKLPKLRTLDVFSGCGGLSEGFHQAGISETLWAIEMWDPAAQAFRLNNPGTTVFTEDCNVLLKLVMAGEVTNSLGQRLPQKGDVEMLCGGPPCQGFSGMNRFNSRTYSKFKNSLVVSFLSYCDYYRPRFFLLENVRNFVSYRRSMVLKLTLRCLVRMGYQCTFGVLQAGQYGVAQTRRRAIILAAAPGEKLPLFPEPLHVFAPRACQLSVVVDDKKFVSNITRLSSGPFRTITVRDTMSDLPEIQNGASNSEIPYNGEPLSWFQRQLRGSHYQPILRDHICKDMSPLVAARMRHIPLFPGSDWRDLPNIQVRLGDGVIAHKLQYTFHDVKNGYSSTGALRGVCSCAEGKACDPESRQFSTLIPWCLPHTGNRHNHWAGLYGRLEWDGFFSTTVTNPEPMGKQGRVLHPEQHRVVSVRECARSQGFPDSYRFFGNILDRHRQVGNAVPPPLAKAIGLEIKLCLLSSARESASAAVKAKEEAATKD

Experiments:
DCMTase = biological target: T1, DCMTase (Mus musculus, UniProt P13864); experiment: Steady-state kinetic assays (methyl transfer from tritiated AdoMet to DNA); type: biochemical; set-up: key: C, competitive; NC, noncompetitive; UC, uncompetitive inhibition; conditions: product inhibition
T1 construct: a highly homogeneous, unproteolyzed preparation of DCMTase from mouse erythroleukemia cells (MEL); endogenous in cells; host or cells: mouse erythroleukemia (MEL) cells; endogenous enzyme purified per Xu et al. 1995
Method: Single-stranded DNA was heated to 90 °C and quick cooled on ice, prior to initiation of the reaction. Freeze-thawed DNA produced equivalent results. Incubations were at 37 °C for 60 minutes. […] The reaction was stopped after 60 minutes by transferring 20 μL of the reaction onto a DE 81 filter paper that was processed as described (Flynn et al., 1996). The radioactivity above the background, determined from assays without added poly(dI·dC:dI·dC), was converted to initial velocities and expressed as picomoles of methyl groups transferred to poly(dI·dC:dI·dC) per hour and plotted in double reciprocal form. […] Incubations were at 37 °C for 60 minutes. […] The GC-box b concentrations were: diamonds, 0; circles, 0.75 μM; triangles, 1.5 μM; squares, 5.0 μM. Incubations were at 37 °C for 60 minutes. […] Incubations were at 37 °C for 60 minutes. […] Incubations were at 37 °C for 60 minutes. […] The AdoHcy concentrations were: squares, 0; diamonds, 0.75 μM; circles, 1.5 μM; triangles, 3.0 μM; notched squares, 6.0 μM. Incubations were at 37 °C for 60 minutes. […] Incubations were at 37 °C for 60 minutes. […] The AdoHcy concentrations were: squares, 0; diamonds, 15 μM; circles, 30 μM. […] The standard errors associated with fitted parameters and graphical analysis of the experimental data scattered around the calculated best fit lines were also considered in making an assignment.

[1] = substrate: C[S+](CC[C@H](N)C(=O)O)C[C@H]1O[C@@H](n2cnc3c(N)ncnc32)[C@H](O)[C@@H]1O; experiment: purified protein, by the assay type; conditions: other: true Michaelis constant, equation 2 (sequential mechanism); 20 nM DCMTase; pH 8.0

Molecule | Type of Inhibition (DCMTase; varied substrate AdoMet, fixed substrate IC) | Type of Inhibition (DCMTase; varied substrate IC, fixed substrate AdoMet) | Km [1] [µM]
Nc1ncnc2c1ncn2[C@@H]1O[C@H](CSCC[C@H](N)C(=O)O)[C@@H](O)[C@H]1O [AdoHcy, S-adenosyl-L-homocysteine] | C | NC/UC | –
B1 | – | – | 1.4 ± 0.2
